Literature values as cited in article PMC10320121 (Nucleic Acids Research, 2023).

oral bioavailability (F): 47.45%
SMILES: N#Cc1ccc2[nH]cc(CCCCN3CCN(c4ccc5oc(C(N)=O)cc5c4)CC3)c2c1 [Vilazodone, vilazodone]
